The test deals with T1, human sEH enzyme (Homo sapiens, UniProt P34913).
T1 construct: His-tag (N, cleaved yes); made in house; host or cells: E. coli
T1 sequence (P34913 1-555): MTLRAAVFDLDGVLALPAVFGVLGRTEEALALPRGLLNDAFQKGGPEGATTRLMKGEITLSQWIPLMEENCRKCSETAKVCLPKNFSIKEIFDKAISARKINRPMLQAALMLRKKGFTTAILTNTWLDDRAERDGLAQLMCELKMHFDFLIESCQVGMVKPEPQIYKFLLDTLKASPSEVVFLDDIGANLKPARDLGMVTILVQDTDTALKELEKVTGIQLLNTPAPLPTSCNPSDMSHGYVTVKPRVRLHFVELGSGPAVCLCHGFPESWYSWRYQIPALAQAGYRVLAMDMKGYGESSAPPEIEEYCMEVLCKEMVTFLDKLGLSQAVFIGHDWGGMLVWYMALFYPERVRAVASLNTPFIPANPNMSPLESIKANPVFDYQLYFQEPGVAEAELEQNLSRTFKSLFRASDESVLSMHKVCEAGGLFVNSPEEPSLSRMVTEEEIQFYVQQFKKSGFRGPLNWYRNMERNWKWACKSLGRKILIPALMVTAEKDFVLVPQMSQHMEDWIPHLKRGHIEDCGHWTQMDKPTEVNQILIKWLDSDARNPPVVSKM
In words: sEH human enzyme assay (fluorescence based enzyme in vitro assay). It is filed as biochemical. As to conditions: recombinant human sEH about 1 nM, fluorescence substrate S7 10 uM, pH7.0, 25° C.; read-out: IC50 [nM] for human sEH enzyme inhibition. From the text: Preparation of Recombinant sEH Human Enzyme
The DNA for expressing sEH was designed based on a […] sEH cDNA. Necessary Modifications were introduced to optimize for its expression both in E. coli and insect cells. The designed DNA fragment encodes a protein sequence that is identical to full length human sEH, and the DNA was synthesized in vitro. The DNA was then subcloned into the pET100 vector that will generate a fusion protein with an N-terminal His-tag. The recombinant protein was expressed in E. coli. The sEH enzyme was affinity purified by a Ni^++ column. His-tag was removed by Enter Kinase (EK) digestion. The purified enzyme aliquots were frozen and held at −80° C. for later use.
Fluorescence Based Enzyme In Vitro Assay
For each assay (100 ul), an aliquot of enzymes (about 1 nM final concentration) was incubated with a fluorescence substrate, S7 (10 uM final concentration), in sEH assay buffer (25 mM HEPES, pH7.0, 0.1 mg/ml BSA) in a 96-well plate. The kinetic reaction reading (Ex330/Em465) was conducted using a plate reader, Spectra max (Molecular Devices) at 25° C.

Where only a bound is given, the exact number is not on record here.

In the case of `CCOC(=O)C1(Cc2nccn2Cc2ccccc2)CCCN(C(=O)Nc2ccc(C(F)(F)F)cc2)C1` (stereo not drawn) [Example 24], the 50% inhibitory concentration (IC50) stood at 7 nM.

Turning to `CC1(c2ccccc2)CCCN(C(=O)NC2CCc3ccccc3C2)C1` (stereo not drawn) [Example 36], the IC50 amounted to 1 nM.

Consider `Cc1nc(C2(C)CCCN(C(=O)Nc3ccc(C(F)(F)F)cc3)C2)no1` (stereo not drawn) [Example 49], for which the IC50 amounted to 5 nM.

In the case of `O=C(O)CCC1(c2ccccc2)CCCN(C(=O)Nc2ccc(Cl)cc2)C1` (stereo not drawn) [Example 3], the IC50 turned out to be 5 nM.

As for `CC1(c2ccccc2)CCCN(C(=O)NCc2ccc(-c3ccc4cn[nH]c4c3)cc2)C1` (stereo not drawn) [Example 43], the IC50 came out at 6 nM.

In the case of `O=C(O)CCC1(c2ccc(-c3ccccc3)cc2)CCCN(C(=O)Nc2ccc(OC(F)(F)F)cc2)C1` (stereo not drawn) [Example 6], the IC50 was found to be 8 nM.

Turning to `COC(=O)CCC1(c2ccc(F)cc2)CCCN(C(=O)NCCCc2ccccc2)C1` (stereo not drawn) [Example 7], the IC50 is less than 1 nM.

For the compound `O=C(Nc1ccc(Cl)cc1)N1CCCC(Cc2ccc(Cl)cc2)(c2ccccc2)C1` (stereo not drawn) [Example 5], the half-inhibitory concentration (IC50) is less than 1 nM.

On to `CCOC(=O)C1(Cc2cccc3ccccc23)CCCN(C(=O)Nc2ccc(C(F)(F)F)cc2)C1` (stereo not drawn) [Example 21], for which the IC50 turned out to be 3 nM.

Consider `CC1(c2ccccc2)CCCN(C(=O)NCc2nc3ccccc3s2)C1` (stereo not drawn) [Example 38], for which the half-maximal inhibitory concentration (IC50) was determined as 30 nM.

With `CC1(c2ccccc2)CCCN(C(=O)Nc2cccnc2)C1` (stereo not drawn) [Example 32], the IC50 was 306 nM.

Regarding `O=C(Nc1ccc(C(F)(F)F)cc1)N1CCCC(Cc2ccccn2)(C(=O)OCc2ccccc2)C1` (stereo not drawn) [Example 23], the IC50 was determined as 2 nM.

For the compound `N#CC1(Cc2ccccc2)CCCN(C(=O)Nc2ccc(C(F)(F)F)cc2)C1` (stereo not drawn) [Example 17], the concentration for half-maximal inhibition (IC50) amounted to 2 nM.

On to `CNC(=O)CCC1(c2ccccc2)CCCN(C(=O)Nc2ccc(Cl)cc2)C1` (stereo not drawn) [Example 50], for which the IC50 amounted to 5 nM.

With `O=C(NC1(Cc2ccccc2)CCCN(C(=O)Nc2ccc(C(F)(F)F)cc2)C1)OCc1ccccc1` (stereo not drawn) [Example 15], the IC50 is 5 nM.

With `O=C(Nc1ccc(Cl)cc1)N1CCCC(CCc2nnn[nH]2)(c2ccccc2)C1` (stereo not drawn) [Example 47], the IC50 was determined as 5 nM.

For `CC1(c2ccccc2)CCCN(C(=O)NCc2ccc(-c3ccc4[nH]ccc4c3)cc2)C1` (stereo not drawn) [Example 42], the half-inhibitory concentration (IC50) is 7 nM.

With `CC1N(C(=O)Nc2ccc(Cl)cc2)CCCC1(C)c1ccccc1` (stereo not drawn) [Example 4], the concentration for half-maximal inhibition (IC50) turned out to be 5 nM.

Take `CC1(c2ccccc2)CCCN(C(=O)NCc2ccc(-c3cccc4cnccc34)cc2)C1` (stereo not drawn) [Example 44]: the IC50 was determined as 3 nM.

As to `O=C(CCC1(c2ccccc2)CCCN(C(=O)Nc2ccc(Cl)cc2)C1)Nc1nnn[nH]1` (stereo not drawn) [Example 48], the IC50 worked out at 1 nM.

For `CCOC(=O)C1(Cc2c(Cl)cccc2Cl)CCCN(C(=O)Nc2ccc(C(F)(F)F)cc2)C1` (stereo not drawn) [Example 9], the IC50 is less than 1 nM.

Take `O=C(Nc1ccc(C(F)(F)F)cc1)N1CCCC(CO)(Cc2ccccc2)C1` (stereo not drawn) [Example 14]: the concentration for half-maximal inhibition (IC50) is 2 nM.

Consider `COC(=O)CCC1(c2ccccc2)CCCN(C(=O)Nc2ccc(-n3nc(C(F)(F)F)cc3C(F)(F)F)cc2)C1` (stereo not drawn) [Example 10], for which the IC50 came out at 3 nM.

With `CC1(c2ccccc2)CCCN(C(=O)NCc2ccc(-c3cccnc3)cc2)C1` (stereo not drawn) [Example 41], the half-inhibitory concentration (IC50) worked out at 1.5 nM.

For `CC1(c2ccccc2)CCCN(C(=O)Nc2nnc(-c3ccccc3)s2)C1` (stereo not drawn) [Example 12], the IC50 was 341 nM.

`CCOC(=O)C1(Cc2nc3ccccc3[nH]2)CCCN(C(=O)Nc2ccc(C(F)(F)F)cc2)C1` (stereo not drawn) [Example 22]: the concentration for half-maximal inhibition (IC50) was 3 nM.

As for `CC1(c2ccccc2)CCCN(C(=O)Nc2noc3ccccc23)C1` (stereo not drawn) [Example 13], the IC50 was determined as 59 nM.

Turning to `O=C(O)CCCC1(c2ccccc2)CCCN(C(=O)Nc2ccc(Cl)cc2)C1` (stereo not drawn) [Example 52], the IC50 was 12 nM.

As to `CC1(c2ccccc2)CCCN(C(=O)NCc2ccc(-c3ccccc3Cl)cc2)C1` (stereo not drawn) [Example 40], the IC50 worked out at 6 nM.

As for `O=C(Nc1ccc(C(F)(F)F)cc1)N1CCCC(Cc2ccccc2)(C(=O)NCCc2c[nH]c3ccccc23)C1` (stereo not drawn) [Example 20], the IC50 is less than 1 nM.

In the case of `N#CCCC1(c2ccccc2)CCCN(C(=O)Nc2ccc(Cl)cc2)C1` (stereo not drawn) [Example 46], the half-maximal inhibitory concentration (IC50) turned out to be 3 nM.

Take `CNC(=O)C1(Cc2ccccc2)CCCN(C(=O)Nc2ccc(C(F)(F)F)cc2)C1` (stereo not drawn) [Example 16]: the IC50 came out at 6 nM.

Take `O=C(NCc1ccc(Cl)c(Cl)c1)N1CCCC(CCc2noc(C(F)(F)F)n2)(c2ccccc2)C1` (stereo not drawn) [Example 18]: the IC50 is 5 nM.

As to `CC1(c2ccccc2)CCCN(C(=O)NC2CCc3ccccc3CC2)C1` (stereo not drawn) [Example 37], the IC50 is 2 nM.

For the compound `CC1(c2ccccc2)CCCN(C(=O)NC2C3CC4CC(C3)CC2C4)C1` (stereo not drawn) [Example 29], the half-inhibitory concentration (IC50) is 10 nM.

Consider `CC1(c2ccccc2)CCCN(C(=O)NC2CC2c2ccccc2)C1` (stereo not drawn) [Example 27], for which the IC50 was found to be 1 nM.

Take `CC1(c2ccccc2)CCCN(C(=O)NCCCc2cccnc2)C1` (stereo not drawn) [Example 33]: the half-inhibitory concentration (IC50) was 6 nM.

As to `COC(=O)CCCC1(c2ccccc2)CCCN(C(=O)Nc2ccc(Cl)cc2)C1` (stereo not drawn) [Example 51], the IC50 is less than 1 nM.

`CC1(c2ccccc2)CCCN(C(=O)NC[C@H]2C[C@@H]2c2ccccc2)C1` (stereo in doubt) [Example 28]: the IC50 amounted to 7 nM.

Take `O=C(O)CCC1(c2ccccc2)CCCN(C(=O)Nc2ccc(-n3nc(C(F)(F)F)cc3C(F)(F)F)cc2)C1` (stereo not drawn) [Example 11]: the half-inhibitory concentration (IC50) was 3 nM.

On to `CC1(c2ccccc2)CCCN(C(=O)NCCCCc2ccccc2)C1` (stereo not drawn) [Example 31], for which the IC50 came to 1 nM.

For `O=C(Nc1ccc(Cl)cc1)N1CCCC(COCc2cc(C(F)(F)F)cc(C(F)(F)F)c2)(c2ccccc2)C1` (stereo not drawn) [Example 1], the 50% inhibitory concentration (IC50) was determined as 2 nM.

In the case of `NC(=O)CCC1(c2ccccc2)CCCN(C(=O)Nc2ccc(Cl)cc2)C1` (stereo not drawn) [Example 45], the IC50 was determined as 5 nM.

As to `CC1(c2ccccc2)CCCN(C(=O)NCCc2ccc3nccnc3c2)C1` (stereo not drawn) [Example 34], the half-inhibitory concentration (IC50) stood at 5 nM.

On to `CC1(c2ccccc2)CCCN(C(=O)NCCc2ccc(Cl)cc2)C1` (stereo not drawn) [Example 30], for which the half-maximal inhibitory concentration (IC50) is less than 1 nM.

In the case of `CC1(c2ccccc2)CCCN(C(=O)NCC2CCc3ccccc3C2)C1` (stereo not drawn) [Example 35], the half-inhibitory concentration (IC50) was 2 nM.

In the case of `O=C(O)CCC1(c2ccc(F)cc2)CCCN(C(=O)NCCCc2ccccc2)C1` (stereo not drawn) [Example 8], the half-inhibitory concentration (IC50) stood at 6 nM.

For `CN(C)C(=O)C1(Cc2ccccc2)CCCN(C(=O)Nc2ccc(C(F)(F)F)cc2)C1` (stereo not drawn) [Example 25], the IC50 was 3 nM.

The values above are taken from US8455520B2, “Soluble epoxide hydrolase inhibitors, compositions containing such compounds and methods of treatment” (Merck Sharp & Dohme Corp., priority 2007, dated 2013).
